The source of these data is patent US11040026B2, “Muscarinic M1 receptor positive allosteric modulators” (SUVEN LIFE SCIENCES LIMITED, priority 2016, dated 2021).

pEC50: −log10 of the molar value.

This experiment has as its target T1, muscarinic M1 receptor (Homo sapiens, UniProt P11229).
T1 sequence (P11229 1-460): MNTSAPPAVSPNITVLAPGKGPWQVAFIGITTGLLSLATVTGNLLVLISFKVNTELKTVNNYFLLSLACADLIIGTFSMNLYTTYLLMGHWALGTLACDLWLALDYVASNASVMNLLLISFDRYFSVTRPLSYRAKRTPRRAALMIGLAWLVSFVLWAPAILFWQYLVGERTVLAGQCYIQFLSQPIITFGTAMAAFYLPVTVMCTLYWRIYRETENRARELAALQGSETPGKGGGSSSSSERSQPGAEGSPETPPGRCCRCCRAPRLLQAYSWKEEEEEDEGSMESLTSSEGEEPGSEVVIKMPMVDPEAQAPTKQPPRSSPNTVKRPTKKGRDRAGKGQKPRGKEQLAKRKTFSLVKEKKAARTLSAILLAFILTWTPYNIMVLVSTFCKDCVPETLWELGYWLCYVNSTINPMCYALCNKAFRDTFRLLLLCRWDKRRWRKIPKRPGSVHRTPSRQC
Put plainly: Allosteric potency EC50 for muscarinic M1 receptor (CHO pCRE-Luc reporter assay). The experiment is classed as cell-based. Conditions: in presence of EC20 of acetylcholine; CHO cells, luciferase reporter, 4 hours. How it is done: Determination of Allosteric Potency EC50 Values for Muscarinic M1 Receptor:
A stable CHO cell line expressing recombinant human Muscarinic M1 receptor and pCRE-Luc reporter system was used for cell-based assay. The assay offers a non-radioactive based approach to determine binding of a compound to GPCRs. In this specific assay, the level of intracellular cyclic AMP which is modulated by activation or inhibition of the receptor is measured. The recombinant cells harbor luciferase reporter gene under the control of cyclic AMP response element.
The above cells were grown in 96 well clear bottom white plates in Hams F12 medium containing 10% fetal bovine serum (FBS). Prior to the addition of compounds or standard agonist, cells were serum starved overnight. Increasing concentrations of test compounds were added along with EC20 of acetylcholine in OptiMEM medium to the cells. The incubation was continued at 37° C. in CO2 incubator for 4 hours. Medium was removed and cells were washed with phosphate buffered saline. The cells were lysed and luciferase activity was measured in a Luminometer. Luminescence units were plotted against the compound concentrations using Graphpad software. EC50 values of the compounds were defined as the concentration required in stimulating the luciferase activity by 50% in presence of EC20 of acetylcholine and the results are provided in table 1.
Take `Cn1ccc2c(Cc3ccc(F)cc3)cc(C(=O)N[C@@H]3CCOC[C@H]3O)nc21` (racemic) [Example 32, Racemic trans-N-(3-Hydroxytetrahydropyran-4-yl)-4-(4-fluorobenzyl)-1-methyl-1H-pyrrolo[2,3-b]pyridine-6-carboxamide]: the pEC50 (usually the negative decadic logarithm of the EC50, by convention in mol/L) was 6.31.
With `Cn1ccc2c(Cc3ccnc(F)c3)cc(C(=O)N[C@H]3CCOC[C@H]3O)nc21` (single isomer, unassigned; isomer-i) [Example 46, cis-N-(3-Hydroxytetrahydropyran-4-yl)-4-(2-fluoropyridin-4-ylmethyl)-1-methyl-1H-pyrrolo[2,3-b]pyridine-6-carboxamide (Isomer-I)], the pEC50 is 5.53.
The result for `COc1ccc(Cc2cc(C(=O)N[C@H]3CCCC[C@@H]3O)nc3c2ccn3C)cn1` [Example 2, N-[(1S,2S)-2-Hydroxycyclohexyl]-4-(2-methoxypyridin-5-ylmethyl)-1-methyl-1H-pyrrolo[2,3-b]pyridine-6-carboxamide] reads 5.97; that for `Cn1ccc2c(Cc3ccc(F)c(F)c3)cc(C(=O)N[C@@H]3CCOC[C@H]3O)nc21` (single isomer, unassigned; isomer-i) [Example 51, trans-N-(3-Hydroxytetrahydropyran-4-yl)-4-(3,4-difluorobenzyl)-1-methyl-1H-pyrrolo[2,3-b]pyridine-6-carboxamide (Isomer-I)], 5.74.
The result for `Cn1ccc2c(Cc3ccc(F)cc3)cc(C(=O)N[C@@H]3CCOC[C@@H]3O)nc21` (racemic) [Example 35, Racemic cis-N-(3-Hydroxytetrahydropyran-4-yl)-4-(4-fluorobenzyl)-1-methyl-H-pyrrolo[2,3-b]pyridine-6-carboxamide] reads 5.83.
The result for `Cn1ccc2c(Cc3cccc(F)c3F)cc(C(=O)N[C@@H]3CCOC[C@H]3O)nc21` (single isomer, unassigned; isomer-ii) [Example 44, trans-N-(3-Hydroxytetrahydropyran-4-yl)-4-(2,3-difluorobenzyl)-1-methyl-1H-pyrrolo[2,3-b]pyridine-6-carboxamide (Isomer-II)] reads 6.13.
On to `Cn1ccc2c(Cc3ccc4ncsc4c3)cc(C(=O)N[C@H]3CCCC[C@@H]3O)nc21` [Example 12, N-[(1S,2S)-2-Hydroxycyclohexyl]-4-(benzothiazol-6-ylmethyl)-1-methyl-1H-pyrrolo[2,3-b]pyridine-6-carboxamide], for which the pEC50 is 6.51.
Regarding `CN1CCOc2c(Cc3ccc(-c4cnn(C)c4)cc3)cc(C(=O)N[C@H]3CCCC[C@@H]3O)nc21` [Example 122, N-[(1S,2S)-2-Hydroxycyclohexyl]-8-[4-(1-methyl-1H-pyrazol-4-yl)benzyl]-4-methyl-2H-pyrido[3,2-b][1,4]oxazine-6-carboxamide], the pEC50 was 7.07.
`Cc1ccc(Cc2cc(C(=O)N[C@H]3CCCC[C@@H]3O)nc3c2ccn3C)cn1` [Example 9, N-[(1S,2S)-2-Hydroxycyclohexyl]-4-(2-methylpyridin-5-ylmethyl)-1-methyl-1H-pyrrolo[2,3-b]pyridine-6-carboxamide]: the pEC50 is 5.80.
Regarding `Cn1ccc2c(Cc3ccnc(F)c3)cc(C(=O)NC3CCOCC3O)nc21` (single isomer, unassigned) [Example 38, Racemic trans-N-(3-Hydroxytetrahydropyran-4-yl)-4-(2-fluoropyridin-4-ylmethyl)-1-methyl-1H-pyrrolo[2,3-b]pyridine-6-carboxamide], the pEC50 was 6.01.
Next, `Cn1cc(-c2ccc(Cc3cc(C(=O)N[C@H]4CCCC[C@@H]4O)nc4c3ccn4C)c(F)c2)cn1` [Example 8, N-[(1S,2S)-2-Hydroxycyclohexyl]-4-[2-fluoro-4-(1-methyl-1H-pyrazol-4-yl)benzyl]-1-methyl-1H-pyrrolo[2,3-b]pyridine-6-carboxamide]: 7.77.
Regarding `COc1ccc(Cc2cc(C(=O)N[C@H]3CCCC[C@@H]3O)nc3c2CCN3C)cc1` [Example 77, N-[(1S,2S)-2-Hydroxycyclohexyl]-4-(4-methoxybenzyl)-1-methyl-2,3-dihydro-1H-pyrrolo[2,3-b]pyridine-6-carboxamide], the pEC50 was 6.47.
As to `Cn1ccc2c(Cc3ccc(-c4cscn4)cc3)cc(C(=O)N[C@@H]3CCOC[C@H]3O)nc21` (single isomer, unassigned; isomer-i) [Example 54, trans-N-(3-Hydroxytetrahydropyran-4-yl)-4-[4-(thiazol-4-yl)benzyl]-1-methyl-1H-pyrrolo[2,3-b]pyridine-6-carboxamide (Isomer-I)], the pEC50 was 6.12.
Take `Cn1ccc2c(Cc3cccnc3)cc(C(=O)N[C@H]3CCCC[C@@H]3O)nc21` [Example 27, N-[(1S,2S)-2-Hydroxycyclohexyl]-4-(pyridin-3-ylmethyl)-1-methyl-1H-pyrrolo[2,3-b]pyridine-6-carboxamide]: the pEC50 is 6.63.
On to `Cn1ccc2c(Cc3cccc(F)c3)cc(C(=O)N[C@H]3CCCC[C@@H]3O)nc21` [Example 25, N-[(1S,2S)-2-Hydroxycyclohexyl]-4-(3-fluorobenzyl)-1-methyl-1H-pyrrolo[2,3-b]pyridine-6-carboxamide], for which the pEC50 was 6.44.
`Cn1ccc2nc(C(=O)N[C@H]3CCCC[C@@H]3O)cc(Cc3ccc(F)cc3)c21` [Example 137, N-[(1S,2S)-2-Hydroxycyclohexyl]-7-(4-fluorobenzyl)-1-methyl-1H-pyrrolo[3,2-b]pyridine-5-carboxamide]: the pEC50 was 6.19.
Regarding `CN1CCc2c(Cc3ccc(Cl)nc3)cc(C(=O)N[C@H]3CCCC[C@@H]3O)nc21` [Example 72, N-[(1S,2S)-2-Hydroxycyclohexyl]-4-(2-chloropyridin-5-ylmethyl)-1-methyl-2,3-dihydro-1H-pyrrolo[2,3-b]pyridine-6-carboxamide], the pEC50 was 6.31.
Next, `Cn1ccc2c(Cc3ccc(F)cc3)cc(C(=O)N[C@H]3CCCC[C@@H]3O)nc21` [Example 4, N-[(1S,2S)-2-Hydroxycyclohexyl]-4-(4-fluorobenzyl)-1-methyl-1H-pyrrolo[2,3-b]pyridine-6-carboxamide]: 6.09.
Next, `Cn1ccc2c(Cc3ccc(F)c(F)c3)cc(C(=O)N[C@H]3CCOC[C@H]3O)nc21` (single isomer, unassigned; isomer-i) [Example 41, cis-N-(3-Hydroxytetrahydropyran-4-yl)-4-(3,4-difluorobenzyl)-1-methyl-1H-pyrrolo[2,3-b]pyridine-6-carboxamide (Isomer-I)]: 5.91; `Cn1ccc2c(Cc3ccc(F)cc3)cc(C(=O)N[C@H]3CCOC[C@H]3O)nc21` (single isomer, unassigned; isomer-i) [Example 36, cis-N-(3-Hydroxytetrahydropyran-4-yl)-4-(4-fluorobenzyl)-1-methyl-1H-pyrrolo[2,3-b]pyridine-6-carboxamide (Isomer-I)]: 5.50; `Cc1ncccc1-c1ccc(Cc2cc(C(=O)N[C@H]3CCCC[C@@H]3O)nc3c2ccn3C)cc1` [Example 21, N-[(1S,2S)-2-Hydroxycyclohexyl]-4-[4-(2-methylpyridin-3-yl)benzyl]-1-methyl-1H-pyrrolo[2,3-b]pyridine-6-carboxamide]: 5.98.
Next, `Cn1ccc2c(Cc3ccc(-c4cscn4)cc3)cc(C(=O)NCC3(O)CCCC3)nc21` [Example 26, N-(1-Hydroxycyclopentylmethyl)-4-[4-(thiazol-4-yl)benzyl]-1-methyl-1H-pyrrolo[2,3-b]pyridine-6-carboxamide]: 6.66; `COc1ccc(Cc2cc(C(=O)N[C@@H]3CCOC[C@H]3O)nc3c2ccn3C)cc1` (single isomer, unassigned; isomer-ii) [Example 61, trans-N-(3-Hydroxytetrahydropyran-4-yl)-4-(4-methoxybenzyl)-1-methyl-1H-pyrrolo[2,3-b]pyridine-6-carboxamide (Isomer-II)]: 6.65.
Turning to `Cn1cc(-c2ccc(Cc3cc(C(=O)N[C@H]4CCCC[C@@H]4O)nc4c3OCCO4)cc2)cn1` [Example 106, N-[(1S,2S)-2-Hydroxycyclohexyl]-8-[4-(1-methyl-1H-pyrazol-4-yl)-benzyl]-2,3-dihydro-[1,4]dioxino[2,3-b]pyridine-6-carboxamide], the pEC50 was 7.85.
Turning to `Cn1ccc2c(Cc3cc(F)ncc3F)cc(C(=O)N[C@H]3CCCC[C@@H]3O)nc21` [Example 11, N-[(1S,2S)-2-Hydroxycyclohexyl]-4-(2,5-difluoropyridin-4-ylmethyl)-1-methyl-1H-pyrrolo[2,3-b]pyridine-6-carboxamide], the pEC50 was 5.76.
The result for `COc1ccc(Cc2cc(C(=O)N[C@H]3CCCC[C@@H]3O)nc3c2OCCO3)cc1` [Example 104, N-[(1S,2S)-2-Hydroxycyclohexyl]-8-(4-methoxybenzyl)-2,3-dihydro-[1,4]dioxino[2,3-b]pyridine-6-carboxamide] reads 6.64.
